Measured values as given in patent US12692256B2, “Salts and crystalline forms of a TAAR1 agonist” (Hoffmann-La Roche Inc., priority 2020, dated 2026).
“Also recorded” adds a separate entry of the source. Where a name gives a salt, the structure may show the parent alone.

Key:
[1] = Dynamic Vapour Sorption (DVS) hygroscopicity; assay type: physicochemical; settings: for Hygroscopicity, weight increase: 0%-RH to 90%-RH at 25° C.; for Hygroscopicity: increase in mass when relative humidity is raised from 0%-RH to 90%-RH at 25° C.
Protocol: For each salt formation experiment 5-ethyl-4-methyl-N-[4-[(2S) morpholin-2-yl]phenyl]-1H-pyrazole-3-carboxamide (approx. 450 mg) was dissolved in dioxane (approx. 90 mL) at elevated temperature (approx. 90° C.) in a 100 mL glass vial. The clear solution was then cooled to 60° C. (to approx. 40° C. for adipic acid) prior to the addition of approx. 1.1 equivalents (approx. 0.55 equivalents for sulfuric acid) of a 0.5 M (0.2 M for fumaric acid) stock solution in dioxane of the respective acid under agitation. The reaction mixture was then allowed to reach ambient temperature passively and further agitated overnight. In the cases of adipic acid, the solvent was partially evaporated at this stage to increase the yield. The solid residue was collected by filtration and rinsed with approx. 2 mL of dioxane. A sample of the wet product was analyzed by XRPD. The remainder of the product was dried in a vacuum tray dryer at 50° C./<10 mbar for 2 days prior to analysis by XRPD, DSC, TGA, and, if appropriate, also by DVS.
Moisture sorption/desorption data were collected on a DVS Advantage, a DVS Adventure, or a DVS Intrinsic (SMS Surface Measurements Systems) moisture balance system. The sorption/desorption isotherms were measured stepwise in a range from 0%-RH to 90%-RH at typically 25° C. A weight change of typically <0.001%/min was chosen as criterion to switch to the next level of relative humidity (with a maximum equilibration time of typically 24 hours, if the weight change criterion was not met). The data were corrected for the initial moisture content of the samples by taking the weight after drying of the samples at 0%-RH as zero point. The hygroscopicity of a given substance is characterized (by close analogy with the European Pharmacopoeia) by the increase in mass when the relative humidity is raised from 0%-RH to 90%-RH at 25° C.: […]

Aqueous solubility = assay type: physicochemical
Protocol: Aqueous solubility was determined by suspending sufficient compound in water water to give a maximum final concentration of 100 mg/mL. The solution was stirred for 24 hours at room temperature (25° C.±5° C.) on a magnetic stirrer using a magnetic stir bar. The final pH of the suspension was measured after 24 hours with a standard pH meter. The suspension was filtered by centrifugation through a ≤0.45 μm PVDF filter. The filtrate was then diluted 1:500 using a solution of ethanol: water (1:1). Quantification was by HPLC using a previously developed HPLC method (Table 4). A standard curve with a concentration range from 0.001 mg/mL-0.3 mg/ml. The solubility was automatically calculated using the peak area of the main peak in the chromatogram.
Aqueous solubility was determined by suspending sufficient compound in water to give a maximum final concentration of ≥10 mg/mL of the parent free-form of the compound. The suspension was equilibrated at 25° C. for 24 hours then the pH was measured. The suspension was then filtered through a glass fibre C filter. The filtrate was then diluted by an appropriate factor e.g. 101. Quantitation was by HPLC with reference to a standard solution of approximately 0.25 mg/mL in DMSO. Different volumes of the standard, diluted and undiluted sample solutions were injected. […]

[2] = crystalline Form A, between 0-90% RH

Row | Structure (SMILES) | Hygroscopicity, weight increase ([1]; re-crystallized salt forms) | Hygroscopicity ([1]; re-crystallized salt forms) | Hygroscopicity ([1]; crude salt forms) | other results
1 | CCc1[nH]nc(C(=O)Nc2ccc([C@H]3CNCCO3)cc2)c1C [Hydrochloric acid, 5-ethyl-4-methyl-N-[4-[(2S)morpholin-2-yl]phenyl]-1H-pyrazole-3-carboxamide] | (<0.1%-m/m | Non-hygroscopic |  | Hygroscopicity, weight increase ([1]; crude salt forms): (0.5%-m/m weight
2 | CCc1[nH]nc(C(=O)Nc2ccc([C@H]3CNCCO3)cc2)c1C [L(+)-Tartaric acid, 5-ethyl-4-methyl-N-[4-[(2S)morpholin-2-yl]phenyl]-1H-pyrazole-3-carboxamide] | (0.4%-m/m |  |  | 
3 | CCc1[nH]nc(C(=O)Nc2ccc([C@H]3CNCCO3)cc2)c1C [Glycolic acid, 5-ethyl-4-methyl-N-[4-[(2S)morpholin-2-yl]phenyl]-1H-pyrazole-3-carboxamide] |  |  | Very hygroscopic; also recorded: (deliquescent) (deliquescent: sufficient water is adsorbed to form a liquid) | 
4 | CCc1[nH]nc(C(=O)Nc2ccc([C@H]3CNCCO3)cc2)c1C [Phosphoric acid, 5-ethyl-4-methyl-N-[4-[(2S)morpholin-2-yl]phenyl]-1H-pyrazole-3-carboxamide] | (0.2%-m/m |  |  | 
5 | CCc1[nH]nc(C(=O)Nc2ccc([C@H]3CNCCO3)cc2)c1C [Sulfuric acid, 5-ethyl-4-methyl-N-[4-[(2S)morpholin-2-yl]phenyl]-1H-pyrazole-3-carboxamide] | (0.1%-m/m | Non-hygroscopic |  | 
6 | CCc1[nH]nc(C(=O)Nc2ccc([C@H]3CNCCO3)cc2)c1C [Adipic acid, 5-ethyl-4-methyl-N-[4-[(2S)morpholin-2-yl]phenyl]-1H-pyrazole-3-carboxamide] | (0.2%-m/m |  |  | 
7 | CCc1[nH]nc(C(=O)Nc2ccc([C@H]3CNCCO3)cc2)c1C [Citric acid, 5-ethyl-4-methyl-N-[4-[(2S)morpholin-2-yl]phenyl]-1H-pyrazole-3-carboxamide] |  |  | Very hygroscopic; also recorded: (deliquescent) (deliquescent: sufficient water is adsorbed to form a liquid) | 
8 | CCc1[nH]nc(C(=O)Nc2ccc([C@H]3CNCCO3)cc2)c1C [Methanesulfonic acid, 5-ethyl-4-methyl-N-[4-[(2S)morpholin-2-yl]phenyl]-1H-pyrazole-3-carboxamide] |  |  | Hygroscopic | phase transformation (relative humidity) ([1]; crude salt form, at 25° C.): at >80%-RH at; Hygroscopicity, weight increase ([1]; crude salt forms): (8.5%-m/m weight
9 | CCc1[nH]nc(C(=O)Nc2ccc([C@H]3CNCCO3)cc2)c1C [5-ethyl-4-methyl-N-[4-[(2S)morpholin-2-yl]phenyl]-1H-pyrazole-3-carboxamide, mono hydrochloric acid salt] |  |  |  | relative humidity at which rate of water uptake was observed to increase ([1]; crystalline Form A): > 80 % RH; hysteresis (DVS) [1, 2]: no hysteresis; mass uptake (DVS) [1, 2]: < 0.1%; pH of saturated aqueous solution (Aqueous solubility; saturated aqueous solution after 24 hours): 5.3; solubility at 24 h (Aqueous solubility; water, thermodynamic from solid, saturated aqueous solution, 24 hours at 25° C., pH 5.3): 52.8 mg/mL
10 | CCc1[nH]nc(C(=O)Nc2ccc([C@H]3CNCCO3)cc2)c1C [p-Toluenesulfonic acid, 5-ethyl-4-methyl-N-[4-[(2S)morpholin-2-yl]phenyl]-1H-pyrazole-3-carboxamide] | (<0.1%-m/m | Non-hygroscopic |  | 
